From PMC10721329, “Quisinostat is a brain-penetrant radiosensitizer in glioblastoma” (JCI Insight, 2023)
Values joined by “and” are separate entries in the source; they are usually repeats but may differ in a detail not shown here. Equal values may be shown once.

Experiments:
U87 flank tumors = assay: U87 flank tumor growth, QST with or without IR; format: in vivo, athymic nude mice; settings: for flank tumor volume: U87, individual mice
Experimental: We next examined whether QST treatment alone or in combination with IR would be effective in slowing tumor growth in a flank model of GBM (U87). Tumor-bearing mice receiving IR were treated with 2-Gy fractions on Monday, Wednesday, and Friday (MWF) 2 hours after dosing with either vehicle solution or QST (10 mg/kg), for a total dose of 6 Gy. Following completion of IR, mice continued to receive vehicle or QST until the tumors reached the maximum volume threshold (Figure 5C). […] The mean tumor volume in mice with combination treatment was approximately 4.5-fold less than that in vehicle-treated mice at study completion (Figure 5D). […]
Rad225XL irradiator (Precision X -Ray).
For flank implantations, cells were pre pared in a 1:1 ratio with 100 uL Matrigel (Corning […]
syringe fitted with a 26 -gauge needle. Mice were anesthetized with isoflurane in a plastic desiccator placed in an ex ternally vented fume hood. The U87 -Matrigel cell suspension was then subcutaneously injected into the flank of the mouse on the posterior/lateral aspect of the lower rib cage. Mice were monitored daily , and growth of flank tumor area was measured with a di gital caliper (ThermoFisher) twice a week. […]
Preparation of QST for In Vivo Use
For in vivo preparation, QST was dissolved in 50% polyethylene glycol (PEG) 300, 50% sterile water solution for 10 mg/kg dosing. The suspension was then sonicated for 10 minutes to allow the drug to completely dissolve. Finally, the pH of both the drug and the vehicle solutions was adjusted to 7.4 before intraperitoneal dosing. […]
In Vivo Irradiation Studies
Intracranial or flank tumor–bearing nude mice were sedated with gaseous isoflurane before
IR. On the first week of treatment, 2 hours after treatment with QST or vehicle, the mice were […]
treated with 2 Gy of ionizing radiation on MWF for a total 6 Gy (3 doses). Ionizing radiation was administered with the RS2000 series biological research irradiator (Rad Source Technologies).
Treatment of Flank-Implanted Mice with QST and/or Radiation
Implanted flank tumors were allowed to grow until the tumor size reached 100 mm3 volume. Mice were randomized into groups before treatment and underwent treatment on MWF for the entire duration of the experiment until the tumor volumes exceeded 2000 mm3. Treatment groups included vehicle (50% PEG-300), QST alone (10 mg/kg), flank IR treatment with vehicle (2 Gy), and flank IR treatment (2 Gy) with QST (10 mg/kg). For mice receiving IR treatment with or without QST, mice were treated with 2 Gy on MWF for a total 6 Gy during the first week of treatment. QST was administered to mice through intraperitoneal injections 2 hours before flank tumor radiation treatment. Upon completion of the radiation regimen, IR-treated mice subsequently received QST or vehicle alone for the rest of the experiment. Tumor growth and treatment response were monitored by manually measuring the tumor area twice per week starting at 13 days after implantation. Upon reaching the tumor volume threshold (2000 mm3), mice were sacrificed, and plasma and tissue samples were harvested for PD and PK analyses 2 hours after treatment with a final dose of QST (10 mg/kg).
Treatment of Mice with Intracranially Implanted QST and/or Radiation
Mice with implanted tumors were allowed to grow until the tumor bioluminescence score reached […] radiance (p/s/[…]/sr). Mice were randomized into groups before treatment. For survival studies, mice underwent treatment on MWF for the entire duration of the experiment until moribund. For mice receiving IR treatment with or without QST, mice were treated with 2

[1] = Stability in human brain homogenate at 37°C; format: in vitro ADME; settings: for %stability in human brain homogenate, mean / stability in human brain homogenate, [QST], % of control: 37 C; for stability in human brain homogenate, [QST], % of control: single data points
Experimental: Hydroxamic acid–based compounds have been reported to display poor stability and high plasma clearance due to the presence of arylesterases and carboxylesterases in rodent blood ([34]). Therefore, we measured the stability of QST in mouse plasma and brain to determine whether drug degradation occurred during our sample preparations and equilibrium dialyses for the determination of unbound drug level (performed at 37°C). […] QST degradation was also observed in mouse brain homogenate (Figure 6B). However, perfusion of mice before brain collection prevented rapid drug degradation in the brain matrix. […] Degradation of QST can also be constrained if plasma and brain samples are processed at 4°C (Supplemental Figure 4A). All subsequent sample preparations were therefore performed on ice-cold baths to avoid degradation of QST in our PK analyses. […] The observed stability is probably due to the absence of esterases in human matrices, which are responsible for degradation of QST ([34]). Because we employed QST in several in vitro studies (Figures 1–4), the stability of the molecule was also tested in the cell media used to culture GSCs (neurobasal medium; see Methods).
Stability Study in Mouse Plasma, Mouse Brain, Human Plasma, Human Brain, and Neural […]
The stability of QST was determined in BALB/c mouse plasma, male nude athymic perfused and nonperfused mouse brain homogenate (1:9 w/v of PBS; pH 7.4), human brain (obtained from VRL Eurofins) homogenate (1:4 w/v of PBS; pH 7.4), pooled human plasma (Innovative Research), and neurobasal media. QST stock solutions (1 mM) were prepared in acetonitrile, subsequently diluted in a 40% methanol mixture, and added t o the matrices to make final concentrations of 100 nM or 10 nM. Then 50 or 30 µL of either plasma or brain homogenate containing QST were aliquoted into 1.5-mL microcentrifuge tubes (Eppendorf) and were incubated at either 4 °C or 37 °C for 0, 2, 4, 6, 12, or 24 hours (n = 3 at each time point). […]
Plasma and brain […]
homogenate samples were stored at −80 °C until LC-MS/MS analysis. […]

With `Cn1cc(CNCC2CCN(c3ncc(C(=O)NO)cn3)CC2)c2ccccc21` [QST, quisinostat] the flank tumor volume (U87 flank tumors; Combo 10 mg/kg Qstat + 6 Gy IR, day 13 post injection) was 51.304 mm^3 and 81.733 mm^3 and 83.824 mm^3 and 92.512 mm^3 and 72.03 mm^3 and 53.016 mm^3 and 98.75 mm^3 and 120.094 mm^3, the flank tumor volume (U87 flank tumors; Combo 10 mg/kg Qstat + 6 Gy IR, day 17 post injection) was 65.596 mm^3 and 96.768 mm^3 and 135.816 mm^3 and 150.381 mm^3 and 167.445 mm^3 and 67.228 mm^3 and 109.551 mm^3 and 200.688 mm^3 and the flank tumor volume (U87 flank tumors; Combo 10 mg/kg Qstat + 6 Gy IR, day 27 post injection) was 91.2925 mm^3 and 64 mm^3 and 59.048 mm^3 and 123.008 mm^3 and 158.112 mm^3 and 72.5 mm^3 and 139.707 mm^3 and 397.373 mm^3. The flank tumor volume (U87 flank tumors; Combo 10 mg/kg Qstat + 6 Gy IR, day 31 post injection) was 237.141 mm^3 and 56.316 mm^3 and 42.768 mm^3 and 189.216 mm^3 and 218.05 mm^3 and 112.694 mm^3 and 312.188 mm^3 and 612.562 mm^3, the flank tumor volume (U87 flank tumors; Combo 10 mg/kg Qstat + 6 Gy IR, day 34 post injection) was 414.304 mm^3 and 54.872 mm^3 and 50.274 mm^3 and 397.488 mm^3 and 349.272 mm^3 and 222.95 mm^3 and 441 mm^3 and 1009.49 mm^3 and the flank tumor volume (U87 flank tumors; Quisinostat 10 mg/kg IP MWF, day 13 post injection) was 95.2875 mm^3 and 73.75 mm^3 and 78.4195 mm^3 and 109.8 mm^3 and 67.5 mm^3 and 101.92 mm^3 and 86.756 mm^3 and 57.6 mm^3 and 136.416 mm^3 and 41.8275 mm^3. For the same molecule, the flank tumor volume (U87 flank tumors; Quisinostat 10 mg/kg IP MWF, day 17 post injection) was 210.7 mm^3 and 60.025 mm^3 and 67.76 mm^3 and 121.838 mm^3 and 70 mm^3 and 176.418 mm^3 and 85.054 mm^3 and 154.638 mm^3 and 242.76 mm^3 and 103.823 mm^3, the flank tumor volume (U87 flank tumors; Quisinostat 10 mg/kg IP MWF, day 20 post injection) was 451.315 mm^3 and 83.1875 mm^3 and 86.756 mm^3 and 196.02 mm^3 and 52.9 mm^3 and 139.24 mm^3 and 89.056 mm^3 and 128.797 mm^3 and 283.279 mm^3 and 129.762 mm^3 and the flank tumor volume (U87 flank tumors; Quisinostat 10 mg/kg IP MWF, day 27 post injection) was 1576.6 mm^3 and 97.556 mm^3 and 122.247 mm^3 and 660 mm^3 and 99.0945 mm^3 and 314.792 mm^3 and 96.9105 mm^3 and 423.864 mm^3 and 686.07 mm^3 and 596.712 mm^3. For the same molecule, the flank tumor volume (U87 flank tumors; Quisinostat 10 mg/kg IP MWF, day 31 post injection) was 2338.49 mm^3 and 75 mm^3 and 125.736 mm^3 and 1098.08 mm^3 and 116.614 mm^3 and 483.181 mm^3 and 162.729 mm^3 and 576 mm^3 and 626.336 mm^3 and 1078.78 mm^3, the flank tumor volume (U87 flank tumors; Quisinostat 10 mg/kg IP MWF, day 34 post injection) was 2338.49 mm^3 and 62.5 mm^3 and 144.652 mm^3 and 1381.2 mm^3 and 108.192 mm^3 and 501 mm^3 and 248.832 mm^3 and 786.52 mm^3 and 822.197 mm^3 and 1622.4 mm^3 and the “mean tumor volume, fold less than in vehicle-treated mice” value (U87 flank tumors; U87 flank, QST 10 mg/kg + IR 6 Gy combination, at study completion) was “approximately 4.5 fold”. For the same molecule, the “%stability in human brain homogenate, mean” value (“%stability” for short) ([1]; 10 nM, 0 hrs) was 100 % of control, the “stability in human brain homogenate, [QST], % of control” value (from here on “stability … % of control”) ([1]; 10 nM, 0 hrs) was 101.7 % of control and 98.5 % of control and 98.3 % of control and the “%stability” value ([1]; 10 nM, 2 hrs) was 90.6 % of control. For the same molecule, the “stability … % of control” value ([1]; 10 nM, 2 hrs) was 87.5 % of control and 89.1 % of control and 95.1 % of control, the “%stability” value ([1]; 10 nM, 6 hrs) was 94.8 % of control and the “stability … % of control” value ([1]; 10 nM, 6 hrs) was 95.6 % of control and 93.7 % of control and 94.9 % of control. For the same molecule, the “%stability” value ([1]; 10 nM, 24 hrs) was 82.9 % of control, the “stability … % of control” value ([1]; 10 nM, 24 hrs) was 83.1 % of control and 81 % of control and 84.6 % of control and the “%stability” value ([1]; 100 nM, 0 hrs) was 100 % of control. The “stability … % of control” value ([1]; 100 nM, 0 hrs) was 98.8 % of control and 102.5 % of control and 98.7 % of control, the “%stability” value ([1]; 100 nM, 2 hrs) was 89.0 % of control and the “stability … % of control” value ([1]; 100 nM, 2 hrs) was 90.7 % of control and 89.5 % of control and 86.8 % of control. The “%stability” value ([1]; 100 nM, 6 hrs) was 92.7 % of control, the “stability … % of control” value ([1]; 100 nM, 6 hrs) was 93.9 % of control and 90.6 % of control and 93.7 % of control and the “%stability” value ([1]; 100 nM, 24 hrs) was 84.4 % of control. The “stability … % of control” value ([1]; 100 nM, 24 hrs) was 81.6 % of control and 84.2 % of control and 87.3 % of control and the “stability in human brain homogenate” value ([1]; 37°C) was “completely stable”.
